From ChEMBL document CHEMBL3882724 (2013)

Assays:
[1] = biological target: T1, Steroid 17-alpha-hydroxylase/17,20 lyase (Homo sapiens, UniProt P05093); assay: Inhibition of human C17,20-lyase in human testis microsomes at 10 nM using 17alpha-hydroxypregnenolone/[21-3H]-17alpha-hydroxypregnenolone as substrate after 30 mins by scintillation counting method relative to control; settings: 0.5 h
T1 sequence (P05093 whole entry): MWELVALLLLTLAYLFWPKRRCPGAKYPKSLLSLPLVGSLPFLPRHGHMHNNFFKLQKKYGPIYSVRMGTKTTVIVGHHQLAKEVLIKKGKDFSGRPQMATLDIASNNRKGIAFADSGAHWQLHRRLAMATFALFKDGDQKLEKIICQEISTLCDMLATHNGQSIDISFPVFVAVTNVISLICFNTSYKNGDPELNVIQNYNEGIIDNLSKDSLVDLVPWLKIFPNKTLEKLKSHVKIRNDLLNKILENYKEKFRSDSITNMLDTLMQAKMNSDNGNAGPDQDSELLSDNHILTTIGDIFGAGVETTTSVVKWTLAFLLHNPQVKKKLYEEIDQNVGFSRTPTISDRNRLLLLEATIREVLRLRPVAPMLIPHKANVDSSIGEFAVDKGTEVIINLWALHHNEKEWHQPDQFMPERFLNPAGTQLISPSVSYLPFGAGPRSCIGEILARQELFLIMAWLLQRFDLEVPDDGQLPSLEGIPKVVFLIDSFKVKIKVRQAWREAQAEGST

[2] = biological target: T1, Steroid 17-alpha-hydroxylase/17,20 lyase; assay: Inhibition of CYP17 in human testicular microsomes using 17alpha-hydroxypregnenolone as substrate assessed as decrease in DHEA levels after 90 mins by ELISA; parameters: species or system Testis
[3] = Half life in human liver microsomes at 1 uM by LC-MS/MS analysis
[4] = Half life in rat liver microsomes at 1 uM by LC-MS/MS analysis

inhibition at 0.01 µM [1]: ≥ 38%
IC50 [2]: ≤ 11 nM
half-life at 1 µM [3]: 1 to 50 min
half-life at 1 µM [4]: 10 to 60 min
SMILES: C[C@]12CCC(=O)OC[C@@H]1CC[C@@H]1[C@@H]2CC[C@]2(C)C(c3cccnc3)=CC[C@@H]12
